These results are taken from patent US20150140059A1 (The Regents of the University of California, priority 2012, published 2015).

Like-named read-outs stand apart in the source and are kept apart here.

The test system of assay [1] is C3H10T1/2 embryonic fibroblast cells. Format: cell-based, mouse. The settings on record: C3H cells, 4 days; for EC50: whole cell extracts, read-out: EC50 for inducing ALP activity. The method, then:
(§1) For direct comparison to Oxy133, C3H cells were also treated with Oxy34 and Oxy49 (FIG. 2A). After 4 days, alkaline phosphatase (ALP) activity was measured in whole cell extracts.
(§2) Cells at confluence were treated with vehicle, Oxy133 or Oxy149. After 4 days, alkaline phosphatase (ALP) activity was measured in whole cell extracts.
(§3) Alkaline phosphatase (ALP) activity assay on whole cell extracts (13,14), and von Kossa staining of cell monolayers for mineralization (16) were performed as previously described.

The test system of assay [2] is Lewis rats. The settings on record: prior studies (ref. 15); cited from earlier work.
In assay [3] the test system is M2-10B4 bone marrow stromal cells. The experiment in a line: Alkaline phosphatase (ALP) activity assay in M2-10B4 cells. Format: cell-based, mouse. The method, then: as §1, §2, §3
In assay [4] the test system is primary human mesenchymal stem cells. Briefly: Osteogenic gene expression by quantitative RT-PCR in primary human MSC. Format: cell-based. The settings on record: 5 μM. An excerpt: (La Jolla, Calif.). […] Human primers sequences were: […] ID NO:1) and 3'-[NT] (SEQ ID NO:2), BSP 5'-[NT] ID NO:3) and 3'-[NT] ID NO:4), […] ID NO:5) and 3'-[NT]
The test system of assay [5] is 8X-Gli luciferase reporter (Hedgehog pathway). Format: cell-based, mouse. The settings on record: C3H cells, 48 hours. The method, then:
(§4) After 4 days ALP activity, and after 7 days the expression of osteogenic genes ALP, BSP, and OSX was measured by quantitative real-time PCR (p<0.001 for control vs. Oxy133, and for Oxy133 vs. Oxy133+Cyc for ALP activity and for the expression of all genes shown). […] (p<0.001 for control vs. Oxy133 at 100 nM, 250 nM, and 1 μM Oxy133). (FIG. 4C) The amount of YFP-Smo captured by 20S beads or control beads was compared in samples containing either no competitor or 50 μM of a free competitor sterol (20S, Oxy133 or Oxy16). The YFP-Smo captured by the beads was measured by Western blot (top) and plotted (bottom) relative to the amount captured in the binding reaction with no competitor.
Cells at 70% confluence in 24-well plates were transiently transfected with Gli-dependent firefly luciferase and Renilla luciferase vectors as we have previously described (17,18). […] Luciferase activity was assessed using the Dual Luciferase Reporter Assay System (Promega Corporation, Madison, Wis.) according to manufacturer's instructions after cells were treated for 48 hours.

Assay [6] deals with Lewis rats. The experiment in a line: Rat posterolateral intertransverse process spinal fusion at L4-L5. The settings on record: for Fusion Rates, Manual Palpation / Fusion Rates, Micro-CT / Fusion Rates, X-ray: at sacrifice (8 weeks); for bilateral fusion on radiographs (animals): four weeks; for Fusion Mass Bone Volume / Fusion Mass Bone Volume to Tissue Volume / Fusion Mass Total Tissue Volume / Fusion Mass Trabecular Separation / trabecular thickness per footnote: micro-CT. Format: in vivo. The method, then:
Thirty-eight 8-week-old male Lewis rats were purchased from Charles River Laboratories (Wilmington, Mass.) and were maintained and housed at the UCLA vivarium in accordance with regulations set forth by the UCLA Office of Protection of Research Subjects. The study was performed under a protocol approved by the UCLA Animal Research Committee (ARC).
Animals were pre-medicated with sustained release buprenorphine thirty minutes prior to surgery and anesthetized with 2% isoflurane administered in oxygen (1 L/min). The surgical site was shaved and disinfected with Betadine and 70% ethanol. Posterolateral intertransverse process spinal fusion at L4-L5 was performed as in prior studies (21,22). The L6 vertebral body was identified using the iliac crest as a landmark. A 4-cm longitudinal midline incision was made through the skin and subcutaneous tissue over L4-L5 down to the lumbodorsal fascia. A 2-cm longitudinal paramedial incision was then made in the paraspinal muscles bilaterally to expose the transverse processes of L4-L5, which were decorticated with a high-speed burr. […] The implants were then covered with the overlying paraspinal muscles and the lumbodorsal fascia and skin were closed with 4-0 Prolene sutures (Ethicon, Inc., Somerville, N.J.). Animals were allowed to ambulate, eat, and drink ad libitum immediately after surgery.
Posteroanterior radiographs of the lumbar spine were taken on each animal at 4, 6, and 8 weeks after surgery using a Faxitron LX60 cabinet radiography system and evaluated blindly by two independent observers employing the following standardized scale: 0, no fusion; 1, unilateral fusion; and 2, complete bilateral fusion. The scores from the observers were added together and only a score of 4 was considered as complete fusion.
Eight weeks after surgery, animals were euthanized and the spines were surgically removed and evaluated by two blinded independent observers for motion between levels. Nonunion was recorded if motion was observed between the facets or transverse processes on either side. Complete fusion was recorded if no motion was observed bilaterally. Spines were scored as either fused or not fused. Unanimous agreement was required to consider complete fusion.
Each removed spine was analyzed by high resolution micro-computed tomography (micro-CT), using a SkyScan 1172 scanner (SkyScan, Belgium) with a voxel isotropic resolution of 20 μm and an X-ray energy of 55 kVp and […] to further assess the fusion rate and observe the fusion mass as we have previously reported (15). Three hundred and sixty projections were acquired over an angular range of 180° with steps of 0.5 with an exposure time of 220 msec/slice. Five frames were averaged at each rotation step to get better signal to noise ratio. A 0.5 mm aluminum filter was used to narrow down the X-ray beam frequency in order to minimize beam hardening artifact. Virtual image slices were reconstructed using the cone-beam reconstruction software version 2.6 based on the Feldkamp algorithm (SkyScan). These settings produced serial cross-sectional 1024×1024 pixel images. Sample re-orientation and 2D visualization were performed using DataViewer (SkyScan). 3D visualization was performed using Dolphin Imaging version 11 (Dolphin Imaging & Management Solutions, Chatsworth, Calif.). Fusion was defined as the bilateral presence of bridging bone between the L4 and L5 transverse processes. The reconstructed images were judged to be fused or not fused by two experienced independent observers. To quantify the density of bone formed within each fusion mass, the tissue volume of the mass (TV), trabecular bone volume within the mass (BV), BV/TV ratio, trabecular thickness, and trabecular separation were calculated. This was performed using DataViewer software with measurements across 501 axial slices (20 um per slice, 10.02 mm length) within each fusion mass, centered at the level of the intervertebral body of L4-5.

A further assay addresses T1, Smoothened (YFP-Smo) (Mus musculus, UniProt P56726).
T1 construct: expressed in transfected cells
The experiment in a line: YFP-Smo capture by 20S-beads, competition with free sterol. Format: binding. The settings on record: 50 μM free competitor sterol, Western blot, semi-quantitative. The method, then: as §4
We previously reported that 20S selectively activates Hh signaling by binding to the Smo receptor (19). To determine whether Oxy133 activates Hh signaling by the same mechanism, we tested the ability of Oxy133 to compete for YFP-tagged Smo (YFP-Smo) binding with a 20S analogue coupled to magnetic beads. As we previously reported, this analogue, nat-20S-yne, contains an alkyne moiety on the iso-octyl chain, allowing for click chemistry-mediated coupling to magnetic beads (20S-beads) (19). Using these beads for sterol-binding assays, the amount of YFP-Smo remaining on the beads relative to a no-competitor sample is measured by Western blotting. […]

T1 sequence (P56726 33-793): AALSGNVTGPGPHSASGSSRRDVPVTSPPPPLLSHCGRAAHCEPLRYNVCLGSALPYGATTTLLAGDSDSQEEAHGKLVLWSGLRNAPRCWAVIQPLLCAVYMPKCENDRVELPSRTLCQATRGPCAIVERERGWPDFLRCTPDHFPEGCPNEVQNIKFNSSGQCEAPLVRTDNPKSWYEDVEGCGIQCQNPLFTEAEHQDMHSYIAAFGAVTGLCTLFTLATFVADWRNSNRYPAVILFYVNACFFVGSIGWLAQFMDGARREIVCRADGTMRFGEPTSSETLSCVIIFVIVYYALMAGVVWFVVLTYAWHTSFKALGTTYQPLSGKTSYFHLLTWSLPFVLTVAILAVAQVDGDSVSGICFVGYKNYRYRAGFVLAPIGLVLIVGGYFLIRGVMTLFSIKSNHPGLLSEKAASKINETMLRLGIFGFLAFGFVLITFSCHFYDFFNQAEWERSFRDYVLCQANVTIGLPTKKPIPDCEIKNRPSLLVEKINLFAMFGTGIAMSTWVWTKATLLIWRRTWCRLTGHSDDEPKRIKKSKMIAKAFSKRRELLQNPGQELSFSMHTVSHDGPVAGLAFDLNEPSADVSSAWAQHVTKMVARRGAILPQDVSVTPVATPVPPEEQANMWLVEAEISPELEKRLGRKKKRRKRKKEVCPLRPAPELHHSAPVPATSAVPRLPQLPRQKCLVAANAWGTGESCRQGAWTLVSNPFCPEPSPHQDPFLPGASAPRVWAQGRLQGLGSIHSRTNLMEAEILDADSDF

As to `CC(C)CCCC(C)(O)C1CCC2C3CC(O)C4CC(O)CCC4(C)C3CCC21C` (stereo not shown) [Oxy34], the EC50 (in general, the concentration that produces a half-maximal response) in assay [1] was determined as 0.8 µM. The “fusion at the 4 week time point” value in the assay on Lewis rats [2] was “no fusion was observed”.
Regarding `C=C(C)CCC[C@](C)(O)[C@H]1CC[C@H]2[C@@H]3C[C@H](O)[C@H]4C[C@@H](O)CC[C@]4(C)[C@H]3CC[C@@]21C` [Oxy49], in assay [1], the EC50 was determined as 0.9 µM. The “fusion at the 4 week time point” value with Lewis rats [2] is recorded as “no fusion was observed”.
For `CCCCCC[C@](C)(O)[C@H]1CC[C@H]2[C@@H]3C[C@H](O)[C@H]4C[C@@H](O)CC[C@]4(C)[C@H]3CC[C@@]21C` [Oxy133, (3S,5S,6S,8R,9S,10R,13S,14S,17S)-17-((S)-2-hydroxyoctan-2-yl)-10,13-dimethylhexadecahydro-1H-cyclopenta[a]phenanthrene-3,6-diol], the concentration for a half-maximal effect (EC50) in assay [1] (Mus musculus, 96 h) is ~0.5 µM. Moreover, in assay [3] (Mus musculus, M210B4, 96 h, read-out: EC50 for inducing ALP activity), the EC50 is ~0.44 µM. The compound further gave a BSP expression increase in assay [4] (2 and 4 weeks) of 4 fold. In assay [4] (4 weeks), the OCN expression induction amounted to 2 fold and the OSX expression induction is 3 fold. In assay [4] (one week), this compound yielded a BSP expression increase of 2 fold. Moreover, the “Gli-dependent reporter activity induction” value in assay [5] (100 nM) was found to be 5 fold. For the same compound, in assay [5] (1 μM), the “Gli-dependent reporter activity induction” value was 17 fold. For the same compound, in the assay on Lewis rats [6] (0.2 mg), the “Fusion Rates, Manual Palpation” value is on record as 0%; the “Fusion Rates, Micro-CT” value is 0%; the “Fusion Rates, X-ray” value turned out to be 0%. Besides, in the assay on Lewis rats [6] (2 mg, 8 weeks), the “bilateral fusion, manual palpation (animals)” value is recorded as 4/8; the “bilateral fusion, micro-CT (animals)” value is listed as 4/8; the “Fusion Mass Bone Volume” value came to 21.217 mm^3; the “Fusion Mass Bone Volume to Tissue Volume” value was 27.104%. In the assay with Lewis rats [6] (2 mg, 8 weeks), the “Fusion Mass Total Tissue Volume” value was determined as 78.586 mm^3, the “Fusion Mass Trabecular Separation” value is recorded as 321.693 μm and the “trabecular thickness per footnote” value is 134.008. Also, in the assay on Lewis rats [6] (2 mg), the “Fusion Rates, Manual Palpation” value was found to be 50%; the “Fusion Rates, Micro-CT” value came out at 50%; the “Fusion Rates, X-ray” value is listed as 50%; the “bilateral fusion on radiographs (animals)” value was 3/8. For the same compound, the “fusion on radiographs (animals)” value in the assay on Lewis rats [6] (2 mg, eight weeks) was 4/8. Besides, in the assay with Lewis rats [6] (20 mg, 8 weeks), the “bilateral fusion, manual assessment (animals)” value was 6/7; the “Fusion Mass Bone Volume” value stood at 19.592 mm^3; the “Fusion Mass Bone Volume to Tissue Volume” value stood at 24.565%; the “Fusion Mass Total Tissue Volume” value was determined as 79.934 mm^3. Moreover, in the assay on Lewis rats [6] (20 mg, 8 weeks), the “Fusion Mass Trabecular Separation” value is given as 310.912 μm and the “trabecular thickness per footnote” value is listed as 124.737. In the assay on Lewis rats [6] (20 mg), the “Fusion Rates, Manual Palpation” value worked out at 86%; the “Fusion Rates, Micro-CT” value is recorded as 100%; the “Fusion Rates, X-ray” value is listed as 100%; the “bilateral fusion on radiographs (animals)” value is recorded as 6/7.
With `CC(C)CCC[C@](C)(O)[C@H]1CC[C@H]2[C@@H]3CC=C4C[C@@H](O)CC[C@]4(C)[C@H]3CC[C@@]21C` [Oxy 20S, 20(S)-hydroxycholesterol], the “amount of YFP-Smo captured on 20S-coupled beads” value on Smoothened (YFP-Smo) is “reduced the amount of YFP-Smo captured”.
Take `CC1=C2C[C@H]3[C@@H](CC=C4C[C@@H](O)CC[C@@]43C)[C@@H]2CC[C@]12O[C@@H]1C[C@H](C)CN[C@H]1[C@H]2C` [Cyclopamine, reference compound]: in assay [1] (4 μM cyclopamine), the “inhibition of Oxy133-induced ALP activity” value is given as “completely inhibited”. For the same compound, the “inhibition of Oxy133-induced ALP activity and osteogenic marker expression” value in assay [3] (M2 cells (data not shown)) is listed as “completely inhibited”.
